{
  "source": "EPA's ToxValDB 9.5 (doi:10.2903/j.efsa.2014.3913)",
  "key": {"Apis mellifera": {"test_system": "Apis mellifera", "settings": "acute, mortality"}, "Bibionidae": {"test_system": "Bibionidae", "settings": "chronic/long-term; duration: 28 days"}, "Chironomus tentans": {"test_system": "Chironomus tentans", "settings": "chronic/long-term; duration: 28 days"}, "Colinus virginianus": {"test_system": "Colinus virginianus", "settings": "for LD50: acute, oral, mortality"}, "Daphnia magna": {"test_system": "Daphnia magna", "settings": "chronic/long-term; duration: 21 days"}, "Folsomia candida": {"test_system": "Folsomia candida", "settings": "chronic/long-term"}, "Hypoaspis aculeifer": {"test_system": "Hypoaspis aculeifer", "settings": "chronic/long-term"}, "Oryctolagus sp.": {"test_system": "Oryctolagus sp.", "settings": "reproduction developmental; organ weight"}, "Poephila guttata": {"test_system": "Poephila guttata", "settings": "acute; oral; unspecified; mortality"}, "Rattus norvegicus": {"test_system": "Rattus norvegicus", "settings": "acute; mortality"}, "[1]": {"settings": "acute, duration: 96 hours, mortality"}, "[2]": {"settings": "chronic/long-term, duration: 28 days"}},
  "data": [
    {"smiles": "COC(=O)c1nc(-c2ccc(Cl)c(OC)c2F)cc(N)c1Cl", "note": "[Halauxifen-methyl]", "values": [
      {"measurement": "NOAEL", "setting": "Anas platyrhynchos; reproductive, reproduction", "value": 160, "unit": "mg/kg-day"},
      {"measurement": "LD50", "setting": "Anas platyrhynchos; short-term, oral, feed, mortality", "value": "> 2090", "unit": "mg/kg-day"},
      {"measurement": "LD50", "setting": "Apis mellifera; dermal", "value": "> 98.1", "unit": "µg/piece"},
      {"measurement": "LD50", "setting": "Apis mellifera; oral, unspecified", "value": "> 108", "unit": "µg/piece"},
      {"measurement": "NOEC", "setting": "Bibionidae", "value": 1.26, "unit": "mg/L"},
      {"measurement": "NOEC", "setting": "Chironomus tentans", "value": 89.3, "unit": "mg/kg"},
      {"measurement": "LD50", "setting": "Colinus virginianus; diet", "value": "> 1330", "unit": "mg/kg-day"},
      {"measurement": "LD50", "setting": "Colinus virginianus", "value": "> 2250", "unit": "mg/kg"},
      {"measurement": "NOAEL", "setting": "Colinus virginianus; reproduction developmental, reproduction", "value": 36.9, "unit": "mg/kg-day"},
      {"measurement": "LC50", "setting": "Cyprinodon variegatus; [1]", "value": "> 1.33", "unit": "µg/mL"},
      {"measurement": "NOEC", "setting": "Cyprinodon variegatus; [2]", "value": 0.0115, "unit": "mg/L"},
      {"measurement": "NOEC", "setting": "Daphnia magna", "value": 0.144, "unit": "mg/L"},
      {"measurement": "NOEC", "setting": "Folsomia candida", "value": 500, "unit": "mg/kg"},
      {"measurement": "NOEC", "setting": "Hypoaspis aculeifer", "value": 12.5, "unit": "mg/kg"},
      {"measurement": "LC50", "setting": "Neomysis kadiakensis; [1]", "value": "> 1.3", "unit": "µg/mL"},
      {"measurement": "NOEC", "setting": "Neomysis kadiakensis; [2]", "value": 0.152, "unit": "mg/L"},
      {"measurement": "NOAEL", "setting": "Oryctolagus sp.", "value": 5.78, "unit": "mg/kg-day"},
      {"measurement": "LD50", "setting": "Poephila guttata", "value": "> 2250", "unit": "mg/kg"},
      {"measurement": "LD50", "setting": "Rattus norvegicus", "value": "> 5000", "unit": "mg/kg"},
      {"measurement": "LC50", "setting": "Tagia sp.; acute, duration: 14 days, mortality", "value": "> 500", "unit": "mg/kg"},
      {"measurement": "NOEC", "setting": "Tagia sp.; chronic/long-term, duration: 8 weeks", "value": 5, "unit": "mg/kg"}
    ]}
  ]
}
